Measurements from patent US9328106B2, “Cyclic ether pyrazol-4-yl-heterocyclyl-carboxamide compounds and methods of use” (Genentech, Inc., priority 2012, dated 2016).

Tests used:
[1] = molecular target: hERG potassium channel (Homo sapiens (Human), UniProt Q12809); assay: hERG assay (IC50), automated PatchXpress in hERG-expressing HEK-293 cells; format: cell-based; details: 0.01-100 μM, 5 minutes after adding test article; for IC20 at 5 min: human, HEK-293 cells that express hERG
Description: The in vitro potential for hERG potassium channel current inhibition was assessed according to the study site standard procedures (ChanTest, Cleveland, Ohio). In brief, hERG inhibition (% max) was determined in hERG-expressing HEK-293 cells (n=2/concentration) using the automated PatchXpress 7000A system (Molecular Devices, Sunnyvale, Calif.) for 5 minutes after adding the test article.

[2] = molecular target: PIM1 (Homo sapiens (Human), UniProt P11309); assay: biochemical; format: biochemical; details: 20 pM PIM1, 1 μM FAM-peptide, 10 μM ATP, 90 minutes at room temperature; read-out: PIM1 LC3K (KI)
[3] = system: MM1.S (multiple myeloma) cells; assay: In vitro cell proliferation, MM1.S multiple myeloma cells; format: cell-based; details: Homo sapiens, MM1.S, 72 h, MM1.S cells, 72 hours, CELL TITER GLO; read-out: Prolif MM1S ATP (EC50);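 further: cells cultured in RPMI with 10% FBS and 2 mM L-Glutamine, seeded in 384-well plates, exposed to compound, cell viability measured by luminescence after CellTiter-Glo addition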
Description: (§1) BaF3 parental line was obtained from the DSMZ repository. […] Media for BaF3 parental line contained RPMI, 10% FBS, 2 mM L-Glutamine, 2 ng/mL mIL-3. Media for BaF3 PIM1 & 2 lines contained RPMI, 10% FBS, 2 mM L-Glutamine, 250 μg/mL. Media for MM1.S (multiple myeloma cells) line contained RPMI, 10% FBS, 2 mM L-Glutamine.
(§2) BaF3, a murine interleukin-3 dependent pro-B cell line, parental cells, BaF3 PIM1 cells, BaF3 PIM2 cells, and MM1.S (multiple myeloma) cells were seeded at 2 k/well, 5 k/well, 5 k/well, and 10 k/well respectively, in a 384-well plate, at 45 μL/well. Test compound was added at 5 μL/well. BaF3 cells (parental and transfected) were incubated overnight, while MM1.S cells were incubated for 72 hours at 37° C., 5% CO2. CELL TITER GLO® Reagent (Promega) was added at 50 μL/well, the plates were incubated for 30 minutes, and their luminescence read on an HT Analyst. IC50/EC50 values for the test compound were calculated.

[4] = system: BaF3 PIM1 cells; assay: In vitro cell proliferation, BaF3 transfected with PIM1; format: cell-based, murine; details: Mus musculus, BaF3, read-out: Prolif BaF3 PIM1 (IC50), BaF3 PIM1 cells, incubated overnight, CELL TITER GLO;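 further: murine IL-3-dependent pro-B BaF3 cells transfected with PIM1, compound exposure overnight at 37 °C under 5% CO2, viability read as luminescence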
Description: as §1, §2

[5] = system: BaF3 parental cells; assay: In vitro cell proliferation, BaF3 parental line + IL3; format: cell-based, murine; details: Mus musculus, BaF3, BaF3 parental, mIL-3, incubated overnight, CELL TITER GLO; read-out: Prolif BaF3 IL3 (IC50);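 further: BaF3 parental cells are murine IL-3 dependent pro-B cells grown with 2 ng/mL mIL-3, 384-well format, viability read by luminescence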

hERG potassium channel, sequence (Q12809 whole entry): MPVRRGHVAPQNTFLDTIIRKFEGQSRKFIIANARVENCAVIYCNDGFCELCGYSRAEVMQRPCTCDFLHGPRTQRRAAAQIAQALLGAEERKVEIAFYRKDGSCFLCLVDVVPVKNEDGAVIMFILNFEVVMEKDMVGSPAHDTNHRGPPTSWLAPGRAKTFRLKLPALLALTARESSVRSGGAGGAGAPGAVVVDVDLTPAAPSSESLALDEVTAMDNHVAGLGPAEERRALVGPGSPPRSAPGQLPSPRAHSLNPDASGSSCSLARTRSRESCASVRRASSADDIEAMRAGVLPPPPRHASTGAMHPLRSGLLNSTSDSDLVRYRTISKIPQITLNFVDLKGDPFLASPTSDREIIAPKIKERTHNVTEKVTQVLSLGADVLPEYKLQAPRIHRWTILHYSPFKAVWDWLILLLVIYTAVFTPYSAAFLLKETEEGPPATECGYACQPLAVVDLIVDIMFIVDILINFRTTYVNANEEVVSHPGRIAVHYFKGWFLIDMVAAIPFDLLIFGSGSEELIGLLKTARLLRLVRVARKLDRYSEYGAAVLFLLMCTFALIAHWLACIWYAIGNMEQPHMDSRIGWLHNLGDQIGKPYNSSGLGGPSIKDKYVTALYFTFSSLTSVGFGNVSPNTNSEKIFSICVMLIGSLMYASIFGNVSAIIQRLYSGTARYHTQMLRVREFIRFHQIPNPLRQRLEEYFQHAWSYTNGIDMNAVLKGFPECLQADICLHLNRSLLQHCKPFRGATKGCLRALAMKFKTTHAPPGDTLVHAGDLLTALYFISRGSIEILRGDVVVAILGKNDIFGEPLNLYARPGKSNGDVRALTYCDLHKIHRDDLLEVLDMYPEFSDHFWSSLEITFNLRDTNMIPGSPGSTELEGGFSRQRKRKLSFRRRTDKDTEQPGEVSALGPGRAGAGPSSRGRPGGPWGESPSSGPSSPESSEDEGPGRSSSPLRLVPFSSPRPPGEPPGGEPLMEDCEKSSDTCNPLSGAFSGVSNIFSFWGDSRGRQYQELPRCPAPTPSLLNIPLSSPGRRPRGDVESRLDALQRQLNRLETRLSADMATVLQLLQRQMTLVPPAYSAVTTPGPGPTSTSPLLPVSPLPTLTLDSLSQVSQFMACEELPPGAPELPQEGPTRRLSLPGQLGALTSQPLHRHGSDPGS
PIM1, sequence (P11309 whole entry): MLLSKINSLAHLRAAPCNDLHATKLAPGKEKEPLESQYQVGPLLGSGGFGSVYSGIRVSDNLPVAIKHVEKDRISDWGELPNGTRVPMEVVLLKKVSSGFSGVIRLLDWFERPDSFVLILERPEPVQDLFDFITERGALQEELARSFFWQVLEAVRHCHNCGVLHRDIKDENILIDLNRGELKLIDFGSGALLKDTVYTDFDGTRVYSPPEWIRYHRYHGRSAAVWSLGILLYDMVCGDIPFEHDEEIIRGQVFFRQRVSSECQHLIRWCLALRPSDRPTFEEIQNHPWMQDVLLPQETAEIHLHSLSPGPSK

`Cn1ncc(NC(=O)c2nc(-c3c(F)cccc3F)sc2N)c1[C@@H]1CC[C@@H](N)[C@H](F)CO1` [Example 177, 5-Amino-N-[5-[(2S,5R,6S)-5-amino-6-fluoro-oxepan-2-yl]-1-methyl-pyrazol-4-yl]-2-(2,6-difluorophenyl)thiazole-4-carboxamide] was tested, and the IC50 [1] was 16000 nM, the IC20 at 5 min [1] was 3900 nM and the Ki [2] was 0.00342 nM.
`CO[C@H]1CO[C@H](c2c(NC(=O)c3nc(-c4c(F)cccc4F)sc3N)cnn2C)CC[C@H]1N` [Example 154, 5-Amino-N-[5-[(2S,5R,6R)-5-amino-6-methoxy-oxepan-2-yl]-1-methyl-pyrazol-4-yl]-2-(2,6-difluorophenyl)thiazole-4-carboxamide] showed an IC50 [1] of 9100 nM, an IC20 at 5 min [1] of 1600 nM and a Ki [2] of 0.008 nM.
Work on `Cn1ncc(NC(=O)c2nc(-c3c(F)cccc3F)sc2N)c1N1CC[C@@H](N)[C@H](F)CC1` [No. 139 of US 2013/0079321, 5-amino-N-(5-((4R,5R)-4-amino-5-fluoroazepan-1-yl)-1-methyl-1H-pyrazol-4-yl)-2-(2,6-difluorophenyl)thiazole-4-carboxamide, reference compound] yielded an IC20 at 5 min [1] of 700 nM.
In the case of `Cn1ncc(NC(=O)c2csc(-c3c(F)cc(C4CC4)cc3F)n2)c1[C@@H]1CC[C@@H](N)[C@H](F)CO1` [Example 358, N-(5-((2S,5R,6S)-5-amino-6-fluorooxepan-2-yl)-1-methyl-1H-pyrazol-4-yl)-2-(4-cyclopropyl-2,6-difluorophenyl)thiazole-4-carboxamide], the EC50 [3] is reported as 938 nM, the IC50 [4] is reported as 68.2 nM and the IC50 [5] is reported as 4100 nM. It also gave a Ki [2] of 0.009 nM.
Compound `CC(C)Oc1ncccc1-c1nc(C(=O)Nc2cnn(C)c2[C@@H]2CC[C@@H](N)[C@H](F)CO2)cs1` [Example 384, N-[5-[(2S,5R,6S)-5-amino-6-fluoro-oxepan-2-yl]-1-methyl-pyrazol-4-yl]-2-(2-isopropoxy-3-pyridyl)thiazole-4-carboxamide] has an EC50 [3] of 4400 nM, an IC50 [4] of 5600 nM and an IC50 [5] of 7200 nM. It also gave a Ki [2] of 9.7 nM.
For `Cn1ncc(NC(=O)c2nc(-c3ccccc3)sc2N)c1[C@@H]1CC[C@@H](N)[C@H](F)CO1` [Example 320, 5-amino-N-(5-((2S,5R,6S)-5-amino-6-fluorooxepan-2-yl)-1-methyl-1H-pyrazol-4-yl)-2-phenylthiazole-4-carboxamide], the EC50 [3] was 187 nM, the IC50 [4] was 24.4 nM and the IC50 [5] was over 25000 nM. The Ki [2] was 0.036 nM.
In the case of `CO[C@@H]1CO[C@H](c2c(NC(=O)c3csc(-c4c(F)cc(C)cc4F)n3)cnn2C)CC[C@H]1N` [Example 355, N-(5-((2S,5R,6S)-5-amino-6-methoxyoxepan-2-yl)-1-methyl-1H-pyrazol-4-yl)-2-(2,6-difluoro-4-methylphenyl)thiazole-4-carboxamide], the EC50 [3] is reported as 1600 nM, the IC50 [4] is reported as 53.5 nM and the IC50 [5] is reported as 3900 nM. The Ki [2] was 0.035 nM.
`C[C@@H]1C[C@@H](N)CC[C@H](c2c(NC(=O)c3nc(-c4c(F)cccc4F)sc3N)cnn2C)O1` [Example 121, 5-amino-N-(5-((2R,5S,7R)-5-amino-7-methyloxepan-2-yl)-1-methyl-1H-pyrazol-4-yl)-2-(2,6-difluorophenyl)thiazole-4-carboxamide] showed an EC50 [3] of 11.9 nM, an IC50 [4] of 13.6 nM and an IC50 [5] of 3500 nM. It also gave a Ki [2] of 0.003 nM.
`Cn1ncc(NC(=O)c2csc(-c3c(F)cccc3F)n2)c1[C@@H]1CC[C@@H](N)[C@@H](F)CO1` [Example 319, N-(5-((2S,5R,6R)-5-amino-6-fluorooxepan-2-yl)-1-methyl-1H-pyrazol-4-yl)-2-(2,6-difluorophenyl)thiazole-4-carboxamide] showed an EC50 [3] of 875 nM, an IC50 [4] of 129 nM and an IC50 [5] of 7800 nM. It also gave a Ki [2] of 0.038 nM.
With `CO[C@@H]1CO[C@H](c2c(NC(=O)c3csc(-c4ncccc4C)n3)cnn2C)CC[C@H]1N` [Example 348, N-(5-((2S,5R,6S)-5-amino-6-methoxyoxepan-2-yl)-1-methyl-1H-pyrazol-4-yl)-2-(3-methylpyridin-2-yl)thiazole-4-carboxamide] the EC50 [3] was 1000 nM, the IC50 [4] was 359 nM and the IC50 [5] was 10500 nM. It also gave a Ki [2] of 0.014 nM.
With `Cn1ncc(NC(=O)c2nc(-c3c(F)cccc3F)sc2N)c1C1CC[C@H](N)[C@H](F)CO1` (stereo partly drawn) [Example 131, 5-amino-N-(5-((5S,6S)-5-amino-6-fluorooxepan-2-yl)-1-methyl-1H-pyrazol-4-yl)-2-(2,6-difluorophenyl)thiazole-4-carboxamide] the EC50 [3] was 10000 nM, the IC50 [4] was 1500 nM and the IC50 [5] was 6800 nM. It also gave a Ki [2] of 0.27 nM.
